For assay [1], the system named is beet armyworm (Spodoptera exigua). Nature of the assay: Insecticidal test on treated lepidopteran diet, beet armyworm. The class given is in vivo. The settings on record: 120 h, second-instar larvae on treated diet, 8 wells, dose of 50 mg/cm^2 [sic] (2000 ppm, 50 μL), dead insects counted 5 days after treatment, read-out: AVG LAPHEG 50 (percent control, beet army worm). How it is done: (§1) The compounds identified in Table 1 were prepared according to the previous methods and were tested against beet armyworm and corn earworm as follows:
(§2) Insecticidal Test for Corn Earworm (Helicoverpa zea) and Beet Armyworm (Spodoptera exigua).
(§3) To prepare test solution, the test compound was formulated at 2000 ppm solution as 4 mg/2 mL of 9 acetone:1 tap water. 50 μL of the 2000 ppm (equivalent to 50 μg/cm^2 dose on diet surface area) test solution was pipetted upon the surface of 1 mL of lepidopteran diet (Southland Multi-Species Lepidopteran Diet) contained in each of eight wells per insect species (one well=1 replication). A second-instar corn earworm and beet armyworm was placed upon the treated diet in each well once the solvent had air-dried. Trays containing the treated diet and larvae were covered and then held in a growth chamber at 25° C., 50-55% RH, and 16 hr light:8 hr dark for 5 days. Observation were conducted 5 days after treatment and infestation. The number of dead insects of 8 per species per treatment was then determined and the results are given in Table 1 as a percent control at a dose of […].
(§4) Keys to the table: Mass spectral data were obtained using liquid chromatography mass spectroscopy (LC-MS). The masses are detected using electrospray ionization (ESI) and reported as Mol Ion (M+H, M−H); AVG LAPHEG 50 refers to activity against beet army worm (Spodoptera exigua) as defined above; AVG HELIZE 50 refers to activity against corn ear worm (Helicoverpa zea) as described above.

In assay [2] the test system is corn earworm (Helicoverpa zea). Nature of the assay: Insecticidal test on treated lepidopteran diet, corn earworm. The class given is in vivo. The following applies: 120 h; second-instar larvae on treated diet, 8 wells; dose of 50 mg/cm^2 [sic] (2000 ppm, 50 μL); dead insects counted 5 days after treatment; read-out: AVG HELIZE 50 (percent control, corn ear worm). As to the method: as §1, §2, §3, §4

As for `Fc1ccc(Nc2nc(NCc3ccc(C(F)(F)F)nc3)nc(N/N=C/c3ccc(OC(F)(F)F)cc3)n2)cc1C(F)(F)F` [Compound 77], the pest or weed control at 2000 µg/mL in assay [1] and in assay [2] was 100% each time.
Take `Fc1ccc(Nc2nc(Cl)nc(N/N=C/c3ccc(OC(F)(F)F)cc3)n2)cc1C(F)(F)F` [Compound 88]: the pest or weed control at 2000 µg/mL in assay [1] and in assay [2] was 100% each time.
As for `Fc1ccccc1/C=N/Nc1nc(NCc2ccc(Cl)nc2)nc(Nc2ccc(F)c(C(F)(F)F)c2)n1` [Compound 69], the pest or weed control at 2000 µg/mL in assay [1] and in assay [2] was 100% throughout.
In the case of `CC1CN(c2nc(N/N=C/c3ccc(OC(F)(F)C(F)F)cc3)nc(Nc3ccc(F)c(C(F)(F)F)c3)n2)CC(C)O1` (stereo not drawn) [Compound 49], the pest or weed control at 2000 µg/mL in assay [1] and in assay [2] was 100% each time.
`COCCN(C)c1nc(N/N=C/c2ccc(OC(F)(F)F)cc2)nc(Nc2ccc(OC(F)(F)F)cc2)n1` [Compound 22]: the pest or weed control at 2000 µg/mL was found to be 50% in assay [1] and 13% in assay [2].
Consider `CCOc1nc(N/N=C/c2ccc(OC)cc2)nc(Nc2cccc(C(F)(F)F)c2)n1` [Compound 14], for which the figures for the pest or weed control at 2000 µg/mL in assay [1] and in assay [2] were 25% and 13%, respectively.
Take `COc1cccc(/C=N/Nc2nc(NCc3ccc(Cl)nc3)nc(Nc3ccc(F)c(C(F)(F)F)c3)n2)c1` [Compound 66]: the pest or weed control at 2000 µg/mL in assay [1] and in assay [2] was 100% each time.
As to `FC(F)C(F)(F)Oc1ccc(/C=N/Nc2nc(Nc3ccc(OC(F)(F)F)cc3)nc(N3CCOCC3)n2)cc1` [Compound 1, (4-Morpholin-4-yl-6-{N′-[4-(1,1,2,2-tetrafluoroethoxy)benzylidene]hydrazino}-1,3,5-triazin-2-yl)-(4-trifluoromethoxyphenyl)amine], the pest or weed control at 2000 µg/mL in assay [1] and in assay [2] was 100% each time.
Consider `CCOCCNc1nc(N/N=C/c2ccc(OC(F)(F)F)cc2)nc(Nc2ccc(OC(F)(F)F)cc2)n1` [Compound 25], for which the pest or weed control at 2000 µg/mL in assay [1] and in assay [2] was 100% in each case.
As to `Fc1cccc(/C=N/Nc2nc(NCc3ccc(Cl)nc3)nc(Nc3ccc(F)c(C(F)(F)F)c3)n2)c1` [Compound 73], the pest or weed control at 2000 µg/mL in assay [1] and in assay [2] was 100% throughout.
`FC(F)C(F)(F)Oc1cccc(/C=N/Nc2nc(Nc3ccc(OC(F)(F)F)cc3)nc(OCC(F)(F)F)n2)c1` [Compound 28]: the pest or weed control at 2000 µg/mL in assay [1] and in assay [2] was 100% each time.
On to `FC(F)(F)Oc1ccc(Nc2nc(N/N=C/c3ccc(Cl)cc3Cl)nc(N3CCOCC3)n2)cc1` [Compound 40], for which the pest or weed control at 2000 µg/mL was found to be 25% in assay [1] and 0% in assay [2].
On to `Fc1ccc(Nc2nc(N/N=C/c3cccc(OC(F)(F)C(F)F)c3)nc(N3CCOCC3)n2)cc1F` [Compound 78], for which the pest or weed control at 2000 µg/mL in assay [1] came to 13%; in assay [2], 88%.
For `COCCNc1nc(N/N=C/c2ccc(F)cc2)nc(Nc2ccc(OC(F)(F)F)cc2)n1` [Compound 17] the same measures were 50% and 63%.
Consider `FC(F)C(F)(F)Oc1cccc(Nc2nc(NCc3ccc(Cl)nc3)nc(N/N=C/c3ccc(Cl)cc3)n2)c1` [Compound 86], for which the pest or weed control at 2000 µg/mL in assay [1] and in assay [2] was 100% in each case.
For `FC(F)(F)c1cccc(/C=N/Nc2ncnc(Nc3cccc(C(F)(F)F)c3)n2)c1` [Compound 103], the pest or weed control at 2000 µg/mL in assay [1] turned out to be 38%; in assay [2], 100%.
The matching figures for `Fc1ccc(Nc2nc(NCc3ccc(Cl)nc3)nc(N/N=C/c3ccc(OC(F)(F)C(F)F)cc3)n2)cc1C(F)(F)F` [Compound 63]: 100% and 100%.
Take `CCOCCN(CCOCC)c1nc(N/N=C/c2ccc(OC(F)(F)F)cc2)nc(Nc2ccc(F)c(C(F)(F)F)c2)n1` [Compound 48]: the results for the pest or weed control at 2000 µg/mL in assay [1] and in assay [2] were 13% and 0%, respectively.
For `CCOC(=O)CN(C)c1nc(N/N=C/c2ccc(OC(F)(F)F)cc2)nc(Nc2ccc(OC(F)(F)F)cc2)n1` [Compound 23] the same measures were 25% and 0%.
Turning to `Fc1ccc(Nc2nc(N/N=C/c3ccc(OC(F)(F)F)cc3)nc(N3CCOCC3)n2)cc1C(F)(F)F` [Compound 54], the pest or weed control at 2000 µg/mL in assay [1] and in assay [2] was 100% each time.
Turning to `Fc1ccc(Nc2nc(NCc3ccc(Cl)nc3)nc(N/N=C/c3cccc(OC(F)(F)F)c3)n2)cc1C(F)(F)F` [Compound 60], the pest or weed control at 2000 µg/mL in assay [1] and in assay [2] was 100% in each case.
Take `Fc1ccc(Nc2nc(N/N=C/c3cccc(OC(F)(F)C(F)F)c3)nc(N3CCOCC3)n2)cc1C(F)(F)F` [Compound 53]: the pest or weed control at 2000 µg/mL in assay [1] and in assay [2] was 100% in each case.
With `CC1CN(c2nc(N/N=C/c3ccc(OC(F)(F)F)cc3)nc(Nc3ccc(F)c(C(F)(F)F)c3)n2)CC(C)O1` (stereo not drawn) [Compound 46], the pest or weed control at 2000 µg/mL in assay [1] and in assay [2] was 100% each time.
For `Fc1ccc(Nc2nc(NCCc3cccnc3)nc(N/N=C/c3ccc(OC(F)(F)F)cc3)n2)cc1C(F)(F)F` [Compound 80], the pest or weed control at 2000 µg/mL in assay [1] and in assay [2] was 100% throughout.
On to `Cc1cnc(CNc2nc(N/N=C/c3cccc(OC(F)(F)C(F)F)c3)nc(Nc3ccc(F)c(C(F)(F)F)c3)n2)cn1` [Compound 56], for which the pest or weed control at 2000 µg/mL in assay [1] came to 100%; in assay [2], 63%.
The matching figures for `FC(F)(F)Oc1ccc(Nc2nc(N/N=C/c3ccc(Cl)c(Cl)c3)nc(N3CCOCC3)n2)cc1` [Compound 39]: 88% and 100%.
As to `FC(F)(F)COc1nc(N/N=C/c2ccccc2C(F)(F)F)nc(Nc2ccc(OC(F)(F)F)cc2)n1` [Compound 32], the pest or weed control at 2000 µg/mL in assay [1] and in assay [2] was 100% in each case.
Turning to `CC1CN(c2nc(N/N=C/c3cc(F)cc(C(F)(F)F)c3)nc(Nc3ccc(F)c(C(F)(F)F)c3)n2)CC(C)O1` (stereo not drawn) [Compound 47], the values for the pest or weed control at 2000 µg/mL in assay [1] and in assay [2] were 100% and 75%, respectively.
For `Fc1ccc(Nc2nc(NCc3ccc(Cl)nc3)nc(N/N=C/c3ccc(Cl)cc3)n2)cc1C(F)(F)F` [Compound 68] the same measures were 100% and 100%.
As for `FC(F)C(F)(F)Oc1ccc(Nc2nc(NCc3ccc(Cl)nc3)nc(N/N=C/c3ccc(C(F)(F)F)cc3)n2)cc1` [Compound 93], the pest or weed control at 2000 µg/mL in assay [1] and in assay [2] was 100% in each case.
With `Fc1ccc(Nc2nc(NCc3ccc(Cl)nc3)nc(N/N=C/c3ccccc3Cl)n2)cc1C(F)(F)F` [Compound 72], the values for the pest or weed control at 2000 µg/mL in assay [1] and in assay [2] were 0% and 25%, respectively.
For `C/C(=N\Nc1nc(Nc2ccc(OC(F)(F)F)cc2)nc(N2CCOCC2)n1)c1cccc(C#N)c1` [Compound 5] the same measures were 100% and 100%.
`Fc1ccc(Nc2ncnc(N/N=C/c3ccc(OC(F)(F)F)cc3)n2)cc1C(F)(F)F` [Compound 3, (4-Fluoro-3-trifluoromethylphenyl)-(4-{N′-[1-(4-trifluoromethoxyphenyl)-methylidene]-hydrazino}-[1,3,5]triazin-2-yl)-amine]: the pest or weed control at 2000 µg/mL in assay [1] and in assay [2] was 100% throughout.
As to `CONc1nc(N/N=C/c2cccc(C(F)(F)F)c2)nc(Nc2ccc(OC(F)(F)F)cc2)n1` [Compound 58], the pest or weed control at 2000 µg/mL in assay [1] and in assay [2] was 100% each time.
Take `COCC(C)Nc1nc(N/N=C/c2ccc(OC(F)(F)F)cc2)nc(Nc2ccc(OC(F)(F)F)cc2)n1` (stereo not drawn) [Compound 24]: the pest or weed control at 2000 µg/mL in assay [1] and in assay [2] was 100% throughout.
For `CCOc1nc(N/N=C/c2cccc(C(F)(F)F)c2)nc(Nc2cccc(C(F)(F)F)c2)n1` [Compound 13], the pest or weed control at 2000 µg/mL in assay [1] amounted to 0%; in assay [2], 75%.
For `CCOc1nc(N/N=C/c2ccc(F)cc2)nc(Nc2ccc(OC(F)(F)F)cc2)n1` [Compound 11], the figures for the pest or weed control at 2000 µg/mL in assay [1] and in assay [2] were 13% and 100%, respectively.
For `Fc1ccc(Nc2nc(NCc3ccc(Cl)nc3)nc(N/N=C/c3cccc(Cl)c3)n2)cc1C(F)(F)F` [Compound 75], the pest or weed control at 2000 µg/mL in assay [1] and in assay [2] was 100% throughout.
With `FC(F)(F)Oc1ccc(Nc2nc(N/N=C/c3ccccc3OC(F)(F)F)nc(N3CCOCC3)n2)cc1` [Compound 45], the pest or weed control at 2000 µg/mL in assay [1] was 38%; in assay [2], 13%.

The record behind these values is patent US8188273B2, “Insecticidal (1,3,5)-triazinyl phenyl hydrazones” (Dow AgroSciences, LLC., priority 2007, dated 2012).
